Measurements published in ChEMBL document CHEMBL1201862, “PubChem BioAssay data set” (2004).
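Step 1: Grow cells in 96-well plates. Step 2: Expose to compound for 48 hours at 5 concentrations. Step 3: Interpolate endpoints linearly; if unreached, use highest concentration. GI50 is the concentration that inhibits growth by half.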 The source made the active and inactive calls. No stated cut-off is given here; in the data, active = GI50 up to about 1.1 µM and inactive = higher.

Legend:
Assay in all cases: inhibition of tumour cell growth, NCI panel, 48 h
NCI-H460 = tested on: NCI-H460
SF-268 = tested on: SF-268
SK-MEL-2 = tested on: SK-MEL-2
HT-29 = tested on: HT-29
SNB-75 = tested on: SNB-75
SF-539 = tested on: SF-539
HCC 2998 = tested on: HCC 2998
KM12 = tested on: KM12
RXF 393 = tested on: RXF 393
OVCAR-3 = tested on: OVCAR-3
NCI-H23 = tested on: NCI-H23
U-251 = tested on: U-251
SF-295 = tested on: SF-295
SK-MEL-28 = tested on: SK-MEL-28
HCT-116 = tested on: HCT-116
SN12C = tested on: SN12C
CAKI-1 = tested on: CAKI-1

Measured: GI50

O=C1CCC(=O)N1Cc1ccccc1/N=[N+](\[O-])c1ccccc1CN1C(=O)CCC1=O
inactive: NCI-H460 > 100 µM | SF-268 > 100 µM | SK-MEL-2 > 100 µM | HT-29 > 100 µM | SNB-75 10.2 µM | SF-539 > 100 µM | HCC 2998 > 100 µM | KM12 > 100 µM | RXF 393 > 100 µM | OVCAR-3 > 100 µM | NCI-H23 > 100 µM | U-251 > 100 µM | SF-295 > 100 µM | SK-MEL-28 > 100 µM | HCT-116 > 100 µM | SN12C > 100 µM

NCCOCCOCC(=O)O
inactive: SF-268 > 100 µM | SK-MEL-2 > 100 µM | HT-29 > 100 µM | SNB-75 > 100 µM | CAKI-1 > 100 µM | SF-539 > 100 µM | HCC 2998 > 100 µM | KM12 > 100 µM | RXF 393 > 100 µM | OVCAR-3 > 100 µM | NCI-H23 > 100 µM | U-251 > 100 µM | SF-295 > 100 µM | SK-MEL-28 > 100 µM | HCT-116 > 100 µM | SN12C > 100 µM

COc1ccc(C[P+]2(c3ccccc3)CCCCC2)cc1.O=[N+]([O-])c1ccc(C[P+]2(c3ccccc3)CCCCC2)cc1.[O-][Cl+3]([O-])([O-])[O-].[O-][Cl+3]([O-])([O-])[O-]
inactive: NCI-H460 71.6 µM | SF-268 > 100 µM | SK-MEL-2 > 100 µM | HT-29 10 µM | SNB-75 > 100 µM | CAKI-1 > 100 µM | SF-539 > 100 µM | HCC 2998 > 100 µM | KM12 75.5 µM | RXF 393 95.9 µM | OVCAR-3 41 µM | NCI-H23 66.8 µM | U-251 > 100 µM | SF-295 > 100 µM | SK-MEL-28 42.2 µM | SN12C 70 µM

C[C@]12CC=CC(=O)[C@@]1(C)CCC(=O)C2
inactive: NCI-H460 > 100 µM | SF-268 > 100 µM | SK-MEL-2 > 100 µM | HT-29 > 100 µM | SNB-75 > 100 µM | CAKI-1 > 100 µM | SF-539 > 100 µM | HCC 2998 > 100 µM | KM12 > 100 µM | RXF 393 > 100 µM | OVCAR-3 > 100 µM | NCI-H23 > 100 µM | U-251 > 100 µM | SF-295 > 100 µM | SK-MEL-28 > 100 µM | HCT-116 > 100 µM | SN12C > 100 µM

COc1cc2c(cc1O)CC13CCC(=O)N1CCc1cc(OC)c(O)c-2c13 (stereo unspecified)
inactive: NCI-H460 > 68.1 µM | SF-268 > 68.1 µM | HT-29 > 68.1 µM | SNB-75 > 68.1 µM | CAKI-1 > 68.1 µM | SF-539 > 68.1 µM | HCC 2998 > 68.1 µM | RXF 393 > 68.1 µM | OVCAR-3 > 68.1 µM | NCI-H23 > 68.1 µM | SF-295 > 68.1 µM | SK-MEL-28 > 68.1 µM | HCT-116 > 68.1 µM | SN12C > 68.1 µM

O=c1/c(=C/c2ccc3c(c2)OCO3)sc2nnc(-c3ccco3)n12
inactive: NCI-H460 > 100 µM | SF-268 > 100 µM | SK-MEL-2 > 100 µM | SNB-75 28.2 µM | CAKI-1 > 100 µM | SF-539 > 100 µM | HCC 2998 > 100 µM | KM12 > 100 µM | RXF 393 > 100 µM | OVCAR-3 > 100 µM | NCI-H23 > 100 µM | U-251 > 100 µM | SF-295 82 µM | SK-MEL-28 > 100 µM | HCT-116 > 100 µM | SN12C > 100 µM

Cc1nnc(N/N=C(/C(=O)C(C#N)c2ccc(Cl)cc2)C(C#N)c2ccc(Cl)cc2)n1N (stereo unspecified)
inactive: NCI-H460 18.6 µM | SF-268 24.1 µM | SK-MEL-2 18.2 µM | HT-29 20.4 µM | SNB-75 16.4 µM | CAKI-1 20.8 µM | HCC 2998 19.4 µM | KM12 18.7 µM | RXF 393 17.7 µM | OVCAR-3 21.5 µM | NCI-H23 17.8 µM | SF-295 15.7 µM | SK-MEL-28 18.7 µM | SN12C 19.3 µM

C=C(C)C1CC2C(C)=C(OC(C)=O)C1n1c(=O)c3cc4ccccc4cc3c(=O)n12 (stereo unspecified)
inactive: NCI-H460 62.5 µM | SF-268 81.3 µM | SK-MEL-2 > 100 µM | HT-29 > 80.9 µM | SNB-75 42 µM | CAKI-1 62.2 µM | SF-539 > 100 µM | HCC 2998 70.8 µM | KM12 > 82 µM | RXF 393 24.2 µM | OVCAR-3 46.9 µM | NCI-H23 50.1 µM | U-251 63.1 µM | SF-295 > 71.6 µM | SK-MEL-28 > 100 µM | HCT-116 > 76.7 µM | SN12C 98.2 µM

Brc1ccc(-c2nnc(-c3nn(-c4ccccc4)c4nc5ccccc5nc34)o2)cc1
inactive: NCI-H460 > 100 µM | SF-268 > 100 µM | SK-MEL-2 60 µM | HT-29 > 100 µM | SNB-75 > 100 µM | CAKI-1 > 100 µM | SF-539 > 100 µM | HCC 2998 > 100 µM | KM12 > 100 µM | RXF 393 > 100 µM | OVCAR-3 95.7 µM | NCI-H23 > 100 µM | U-251 > 100 µM | SF-295 > 100 µM | SK-MEL-28 > 100 µM | HCT-116 27.8 µM | SN12C > 100 µM

COc1cc(/C=C/C(=N\NC(=O)c2ccccc2)c2sc(Nc3ccc(Cl)c(Cl)c3)nc2C)ccc1O
inactive: NCI-H460 31.3 µM | SF-268 38.6 µM | SK-MEL-2 26.2 µM | HT-29 28.9 µM | SNB-75 33.3 µM | CAKI-1 36.4 µM | SF-539 40.8 µM | HCC 2998 28.8 µM | KM12 30.5 µM | RXF 393 39.7 µM | OVCAR-3 30.3 µM | NCI-H23 25.7 µM | U-251 31.9 µM | SF-295 33.1 µM | SK-MEL-28 40.6 µM | HCT-116 28.2 µM | SN12C 33 µM

CCOC(=O)C1(C)CCC(C(=O)OC)C1=O (stereo unspecified)
inactive: NCI-H460 15.3 µM | SF-268 > 100 µM | SK-MEL-2 > 100 µM | HT-29 65.5 µM | SNB-75 > 100 µM | CAKI-1 > 100 µM | SF-539 > 100 µM | HCC 2998 75.3 µM | KM12 > 100 µM | RXF 393 > 100 µM | OVCAR-3 > 100 µM | NCI-H23 > 100 µM | U-251 67.1 µM | SF-295 > 100 µM | SK-MEL-28 > 100 µM | HCT-116 57 µM | SN12C 42.9 µM

Cc1n[nH]c(=O)n1/N=C/c1ccc(Cl)cc1
inactive: NCI-H460 59.7 µM | SF-268 44.9 µM | SNB-75 41.2 µM | CAKI-1 52.2 µM | SF-539 78.2 µM | HCC 2998 > 100 µM | KM12 > 100 µM | RXF 393 22.3 µM | OVCAR-3 27.9 µM | NCI-H23 27.9 µM | SF-295 46 µM | SK-MEL-28 > 100 µM | HCT-116 64.4 µM | SN12C 70.6 µM
